Legend:
PDE2 = biological target: T1, PDE2 (Homo sapiens, UniProt O00408); assay: Inhibition of PDE2 (radioenzymatic phosphodiesterase assay); assay type: biochemical; conditions: Table 1, 1 μM cyclic AMP
T1 construct: PDE2 was isolated from human platelets, provided by Etablissement Français du Sang-Alsace; tissue Etablissement Français du Sang-Alsace; host or cells: human platelets
Method: 2.1.1. Isolation of Phosphodiesterases from Smooth Muscle A 3 g segment of bovine aortic media cut into pieces with scissors was homogenized with an ultra-turrax then a potter glass/glass homogenizer in 7 volumes by weight of buffer A containing a protease inhibitor cocktail (20 mM Tris-HCl, 0.25 M saccharose, 2 mM magnesium acetate, 1 mM dithiothreitol, 5 mM EGTA, 2000 U/ml aprotinin, 10 mg/l leupeptin and 10 mg/l soya trypsic inhibitor). The homogenizate was centrifuged at 105,000 g for 1 hour. The supernatant was loaded on a DEAE-Sephacel column (15×1.6 cm) pre-equilibrated with buffer B (buffer A without the saccharose, EGTA and protease inhibitors). The column was washed until there was no detectable absorption at 280 nm, then eluted with a linear gradient of NaCl (0-0.5 M) in buffer B. 3-ml fractions were collected and enzyme activity was determined under the conditions described hereinbelow to localize the different enzymes PDE1, PDE3, PDE4 and PDE5 which were aliquoted and frozen at −80° C. (Lugnier et al., Biochem. Phamacol., 1986, 35: 1746-1751). PDE2 was isolated from human platelets, provided by Etablissement Français du Sang-Alsace, according to Kameni Tcheudji J F et al., (J. Mol. Biol. 2001; 310: 181-791), and stored until use at −80° C. in small aliquots.
Cyclic nucleotide phosphodiesterase activity was determined by a radioenzymatic method using tritium-labelled cyclic GMP or AMP (1 μM) as substrate (Lugnier et al., 1986). ^3H-labelled adenosine or guanosine monophosphate formed by hydrolysis of the radiolabelled cyclic nucleotide was then converted to ^3H-labelled adenosine or guanosine in a second reaction with […] in excess. The nucleoside formed was separated from the nucleotides by anion exchange chromatography. Nucleoside radioactivity was determined by liquid scintillation counting. Enzymatic incubations were carried out under conditions allowing no more than 15% hydrolysis of the substrate; each point was performed in duplicate.
The concentration of substance which inhibits enzymatic activity by 50% (IC50) at 1 μM cyclic AMP was calculated by nonlinear regression from the experimental values of hydrolysis rate (Prism, GraphPad).

sigma 2 receptors = biological target: T2, sigma 2 receptors (Rattus norvegicus, UniProt Q5U3Y7); assay: Sigma 2 receptor binding ([3H]DTG + (+)pentazocine); conditions: [3H]DTG 5 nM + 300 nM (+)pentazocine, rat cerebral cortex, read-out: σ2 percentage inhibition at 10 μM
T2 construct: The sigma 2 receptors were isolated from rat cerebral cortex; from tissue; host or cells: rat cerebral cortex
T2 sequence (Q5U3Y7 1-176): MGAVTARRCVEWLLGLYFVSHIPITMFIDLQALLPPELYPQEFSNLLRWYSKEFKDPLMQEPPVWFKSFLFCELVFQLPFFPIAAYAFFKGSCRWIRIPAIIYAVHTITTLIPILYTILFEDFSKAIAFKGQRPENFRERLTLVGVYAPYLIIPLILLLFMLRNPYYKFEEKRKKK
Method: The sigma 1 receptors were isolated from guinea pig cerebral cortex according to the method described in Bowen et al., 1993.
Sigma 1 receptor binding was determined by a radioligand method using tritium-labelled (+)pentazocine (2 nM) as substrate (Bowen et al., 1993). Sigma 2 receptor binding was determined by a radioligand method using tritium-labelled DTG (+300 nM (+)pentazocine) (5 nM) as substrate (Bowen et al., 1993). Ligand radioactivity was determined by liquid scintillation counting. For sigma 1 binding evaluation, ligand incubations were carried out for one hundred fifty minutes at 22° C. For sigma 2 binding evaluation, ligand incubations were carried out for one hundred twenty minutes at 22° C. The experiments were conducted in duplicate.
The specific ligand binding to the sigma receptors was defined as the difference between the total binding and the non specific binding determined in presence of an excess of unlabelled ligand. The results obtained are presented in Table 4 hereinbelow and are expressed as percent of control specific binding and as a percent inhibition of control specific binding obtained in presence of 10 μM of substance.

[1] = system: σ (non-selective) receptors; assay: Sigma receptors binding, non-selective ([3H]DTG); conditions: [3H]DTG 8 nM, rat cerebral cortex
Method: The sigma receptors were isolated from rat cerebral cortex according to the method described in Shirayama et al., 1993, p-Chlorophenylalanine-reversible reduction of s binding sites by chronic imipramine treatment in rat brain, Eur. J. Pharmacol., 237: 117-126.
Sigma 1 receptor binding was determined by a radioligand method using tritium-labelled DTG (8 nM) as substrate (Shirayama et al., 1993). Ligand radioactivity was determined by liquid scintillation counting. For sigma binding evaluation, ligand incubations were carried out for one hundred twenty minutes at 22° C. The experiments were conducted in duplicate.
The specific ligand binding to the sigma receptors was defined as the difference between the total binding and the non specific binding determined in presence of an excess of unlabelled ligand. […]

T1 sequence (O00408 whole entry): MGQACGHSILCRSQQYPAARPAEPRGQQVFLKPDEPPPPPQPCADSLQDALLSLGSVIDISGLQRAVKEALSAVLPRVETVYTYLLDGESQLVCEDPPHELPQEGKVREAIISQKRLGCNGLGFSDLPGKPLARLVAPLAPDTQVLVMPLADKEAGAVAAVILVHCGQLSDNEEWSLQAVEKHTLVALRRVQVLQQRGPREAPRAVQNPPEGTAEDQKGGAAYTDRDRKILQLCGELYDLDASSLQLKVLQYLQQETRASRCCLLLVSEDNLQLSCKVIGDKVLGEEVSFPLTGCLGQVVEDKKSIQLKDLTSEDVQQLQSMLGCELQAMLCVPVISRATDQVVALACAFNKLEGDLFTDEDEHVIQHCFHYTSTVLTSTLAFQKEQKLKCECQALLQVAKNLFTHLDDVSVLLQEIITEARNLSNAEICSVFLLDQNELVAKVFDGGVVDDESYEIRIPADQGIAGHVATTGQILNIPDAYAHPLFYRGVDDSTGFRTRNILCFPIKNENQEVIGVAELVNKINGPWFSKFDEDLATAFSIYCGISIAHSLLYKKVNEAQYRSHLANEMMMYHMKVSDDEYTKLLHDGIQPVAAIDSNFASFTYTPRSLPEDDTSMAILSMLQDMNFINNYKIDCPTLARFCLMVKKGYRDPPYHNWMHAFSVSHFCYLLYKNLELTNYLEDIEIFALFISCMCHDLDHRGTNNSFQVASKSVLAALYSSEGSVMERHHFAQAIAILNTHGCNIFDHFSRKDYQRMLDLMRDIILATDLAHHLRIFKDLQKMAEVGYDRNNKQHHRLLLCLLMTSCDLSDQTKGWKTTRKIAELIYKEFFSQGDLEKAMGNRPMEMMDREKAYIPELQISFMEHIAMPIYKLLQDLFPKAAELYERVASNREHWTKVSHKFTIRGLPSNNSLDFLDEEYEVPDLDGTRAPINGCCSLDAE

**Q.** What does the source list for `COc1cc2c(c(OC)c1-c1ccccc1)C(c1cccc(C(N)=O)c1)=NCC(=O)N2C` [Compound 17, 3-(6,8-Dimethoxy-1-methyl-2-oxo-7-phenyl-2,3-dihydro-1H-benzo[e][1,4]diazepin-5-yl)-benzamide]?
**A.** inhibition at 10 µM (PDE2; 10 μM compound, read-out: PDE2 percentage inhibition at 10 μM): 80%; IC50 (PDE2; value in square brackets, read-out: PDE2 IC50): 800 nM; inhibition at 10 µM (sigma 2 receptors): 93%; σ (non-selective) percentage inhibition at 0.1 μM ([1]; 0.1 μM): 1%; σ (non-selective) percentage inhibition at 1 μM ([1]; 1 μM): 57%; σ (non-selective) percentage inhibition at 10 μM ([1]; 10 μM): 100%
